According to ChEMBL document CHEMBL4732126, “Design, synthesis, and biodistribution studies of new analogues of marine alkaloids: Potent in vitro and in vivo fungicidal agents against Candida spp” (Eur J Med Chem, 2021):
The source made the active and inactive calls. The calls are words filed in the database; no cut-off is given here.

Key:
Candida albicans [1] = assay: Antifungal activity against Candida albicans ATCC 10231 assessed as reduction in fungal growth incubated for 48 hrs by broth microdilution method; format: functional
Candida albicans [2] = assay: Antifungal activity against Candida albicans ATCC 18804 assessed as reduction in fungal growth incubated for 48 hrs by broth microdilution method; format: functional
Nakaseomyces glabratus [3] = assay: Antifungal activity against Candida glabrata ATCC 2001 assessed as reduction in fungal growth incubated for 48 hrs by broth microdilution method; format: functional
Pichia kudriavzevii [4] = assay: Antifungal activity against Candida krusei ATCC 34135 assessed as reduction in fungal growth incubated for 48 hrs by broth microdilution method; format: functional
Candida tropicalis [5] = assay: Antifungal activity against Candida tropicalis ATCC 28707 assessed as reduction in fungal growth incubated for 48 hrs by broth microdilution method; format: functional
Candida albicans [6] = assay: Antifungal activity against Candida albicans isolate 1 assessed as reduction in fungal growth incubated for 48 hrs by broth microdilution method; format: functional
Candida albicans [7] = assay: Antifungal activity against Candida albicans isolate 2 assessed as reduction in fungal growth incubated for 48 hrs by broth microdilution method; format: functional
Candida albicans [8] = assay: Antifungal activity against Candida albicans isolate 3 assessed as reduction in fungal growth incubated for 48 hrs by broth microdilution method; format: functional
Candida albicans [9] = assay: Antifungal activity against Candida albicans isolate 4 assessed as reduction in fungal growth incubated for 48 hrs by broth microdilution method; format: functional
Candida albicans [10] = assay: Antifungal activity against Candida albicans isolate 5 assessed as reduction in fungal growth incubated for 48 hrs by broth microdilution method; format: functional
Candida albicans [11] = assay: Antifungal activity against Candida albicans isolate 6 assessed as reduction in fungal growth incubated for 48 hrs by broth microdilution method; format: functional
Candida albicans [12] = assay: Antifungal activity against Candida albicans isolate 7 assessed as reduction in fungal growth incubated for 48 hrs by broth microdilution method; format: functional
Candida albicans [13] = assay: Antifungal activity against Candida albicans isolate 8 assessed as reduction in fungal growth incubated for 48 hrs by broth microdilution method; format: functional
Candida albicans [14] = assay: Antifungal activity against Candida albicans isolate 9 assessed as reduction in fungal growth incubated for 48 hrs by broth microdilution method; format: functional
Candida albicans [15] = assay: Antifungal activity against Candida albicans isolate 10 assessed as reduction in fungal growth incubated for 48 hrs by broth microdilution method; format: functional
Candida albicans [16] = assay: Antifungal activity against Candida albicans isolate 11 assessed as reduction in fungal growth incubated for 48 hrs by broth microdilution method; format: functional
Candida albicans [17] = assay: Antifungal activity against Candida albicans isolate 12 assessed as reduction in fungal growth incubated for 48 hrs by broth microdilution method; format: functional
Candida albicans [18] = assay: Antifungal activity against Candida albicans isolate 13 assessed as reduction in fungal growth incubated for 48 hrs by broth microdilution method; format: functional
Candida albicans [19] = assay: Fungicidal activity against Candida albicans ATCC 18804 assessed as fungal killing incubated for 48 hrs followed by plating on SD agar plate; format: functional; conditions: read-out: MFC99.9
Candida albicans [20] = assay: Fungicidal activity against Candida albicans ATCC 10231 assessed as fungal killing incubated for 48 hrs followed by plating on SD agar plate; format: functional; conditions: read-out: MFC99.9
Nakaseomyces glabratus [21] = assay: Fungicidal activity against Candida glabrata ATCC 2001 assessed as fungal killing incubated for 48 hrs followed by plating on SD agar plate; format: functional; conditions: read-out: MFC99.9
Pichia kudriavzevii [22] = assay: Fungicidal activity against Candida krusei ATCC 34135 assessed as fungal killing incubated for 48 hrs followed by plating on SD agar plate; format: functional; conditions: read-out: MFC99.9
Candida tropicalis [23] = assay: Fungicidal activity against Candida tropicalis ATCC 28707 assessed as fungal killing incubated for 48 hrs followed by plating on SD agar plate; format: functional; conditions: read-out: MFC99.9
Candida albicans [24] = assay: Fungicidal activity against Candida albicans isolate 1 assessed as fungal killing incubated for 48 hrs followed by plating on SD agar plate; format: functional; conditions: read-out: MFC99.9
Candida albicans [25] = assay: Fungicidal activity against Candida albicans isolate 2 assessed as fungal killing incubated for 48 hrs followed by plating on SD agar plate; format: functional; conditions: read-out: MFC99.9
Candida albicans [26] = assay: Fungicidal activity against Candida albicans isolate 3 assessed as fungal killing incubated for 48 hrs followed by plating on SD agar plate; format: functional; conditions: read-out: MFC99.9
Candida albicans [27] = assay: Fungicidal activity against Candida albicans isolate 4 assessed as fungal killing incubated for 48 hrs followed by plating on SD agar plate; format: functional; conditions: read-out: MFC99.9
Candida albicans [28] = assay: Fungicidal activity against Candida albicans isolate 5 assessed as fungal killing incubated for 48 hrs followed by plating on SD agar plate; format: functional; conditions: read-out: MFC99.9
Candida albicans [29] = assay: Fungicidal activity against Candida albicans isolate 6 assessed as fungal killing incubated for 48 hrs followed by plating on SD agar plate; format: functional; conditions: read-out: MFC99.9
Candida albicans [30] = assay: Fungicidal activity against Candida albicans isolate 7 assessed as fungal killing incubated for 48 hrs followed by plating on SD agar plate; format: functional; conditions: read-out: MFC99.9
Candida albicans [31] = assay: Fungicidal activity against Candida albicans isolate 8 assessed as fungal killing incubated for 48 hrs followed by plating on SD agar plate; format: functional; conditions: read-out: MFC99.9
Candida albicans [32] = assay: Fungicidal activity against Candida albicans isolate 9 assessed as fungal killing incubated for 48 hrs followed by plating on SD agar plate; format: functional; conditions: read-out: MFC99.9
Candida albicans [33] = assay: Fungicidal activity against Candida albicans isolate 10 assessed as fungal killing incubated for 48 hrs followed by plating on SD agar plate; format: functional; conditions: read-out: MFC99.9
Candida albicans [34] = assay: Fungicidal activity against Candida albicans isolate 11 assessed as fungal killing incubated for 48 hrs followed by plating on SD agar plate; format: functional; conditions: read-out: MFC99.9
Candida albicans [35] = assay: Fungicidal activity against Candida albicans isolate 12 assessed as fungal killing incubated for 48 hrs followed by plating on SD agar plate; format: functional; conditions: read-out: MFC99.9
Candida albicans [36] = assay: Fungicidal activity against Candida albicans isolate 13 assessed as fungal killing incubated for 48 hrs followed by plating on SD agar plate; format: functional; conditions: read-out: MFC99.9
Candida albicans [37] = assay: Fungicidal activity against Candida albicans ATCC 10231 assessed as reduction in fungal load at 7.8 ug/ml incubated for 36 hrs followed by inoculation on SD agar plate for 48 hrs by time-kill assay; format: functional, organism-based; conditions: dose 7.8 µg/ml, time 84.0 hrs
Candida albicans [38] = assay: Disruption of cell membrane in Candida albicans ATCC 10231 assessed as increase in intracellular leakage at MIC incubated for 24 hrs by UV spectrophotometric analysis; format: cell-based
Nakaseomyces glabratus [39] = assay: Disruption of cell membrane in Candida glabrata ATCC 2001 assessed as increase in intracellular leakage at MIC incubated for 24 hrs by UV spectrophotometric analysis; format: cell-based
Pichia kudriavzevii [40] = assay: Disruption of cell membrane in Candida krusei ATCC 34135 assessed as increase in intracellular leakage at MIC incubated for 24 hrs by UV spectrophotometric analysis; format: cell-based
Candida tropicalis [41] = assay: Disruption of cell membrane in Candida tropicalis ATCC 28707 assessed as increase in intracellular leakage at MIC incubated for 24 hrs by UV spectrophotometric analysis; format: cell-based
Candida albicans [42] = assay: Antifungal activity against Candida albicans ATCC 10231 assessed as reduction in fungal growth incubated for 48 hrs in presence of ergosterol by broth microdilution method; format: functional
Candida albicans [43] = assay: Antifungal activity against Candida albicans ATCC 10231 assessed as reduction in fungal growth incubated for 48 hrs in presence of sorbitol by broth microdilution method; format: functional
Nakaseomyces glabratus [44] = assay: Antifungal activity against Candida glabrata ATCC 2001 assessed as reduction in fungal growth incubated for 48 hrs in presence of ergosterol by broth microdilution method; format: functional
Nakaseomyces glabratus [45] = assay: Antifungal activity against Candida glabrata ATCC 2001 assessed as reduction in fungal growth incubated for 48 hrs in presence of sorbitol by broth microdilution method; format: functional
Pichia kudriavzevii [46] = assay: Antifungal activity against Candida krusei ATCC 34135 assessed as reduction in fungal growth incubated for 48 hrs in presence of ergosterol by broth microdilution method; format: functional
Pichia kudriavzevii [47] = assay: Antifungal activity against Candida krusei ATCC 34135 assessed as reduction in fungal growth incubated for 48 hrs in presence of sorbitol by broth microdilution method; format: functional
Candida tropicalis [48] = assay: Antifungal activity against Candida tropicalis ATCC 28707 assessed as reduction in fungal growth incubated for 48 hrs in presence of ergosterol by broth microdilution method; format: functional
Candida tropicalis [49] = assay: Antifungal activity against Candida tropicalis ATCC 28707 assessed as reduction in fungal growth incubated for 48 hrs in presence of sorbitol by broth microdilution method; format: functional
Candida albicans [50] = assay: Antifungal activity against Candida albicans ATCC 10231 assessed as inhibition of yeast to hypha morphological transition at 15.6 ug/ml measured upto 72 hrs by microscopic analysis; format: functional, organism-based; conditions: dose 15.6 µg/ml, time hrs <=72
Candida albicans [51] = assay: Antibiofilm activity against Candida albicans ATCC 10231 assessed as reduction in mature biofilm at 125 ug/ml incubated for 48 hrs by crystal violet staining based spectrophotometric analysis relative to control; format: functional
Candida albicans [52] = assay: Antibiofilm activity against Candida albicans ATCC 10231 assessed as reduction in biofilm formation at 0.24 to 7.81 ug/ml by crystal violet staining based spectrophotometric analysis; format: functional, organism-based; conditions: dose 0.24-7.81 µg/ml
Candida albicans [53] = assay: Fungicidal activity against Candida albicans ATCC 10231 assessed as reduction in fungal load at 31.25 ug/ml incubated for 12 hrs followed by inoculation on SD agar plate for 48 hrs by time-kill assay; format: functional, organism-based; conditions: dose 31.25 µg/ml, time 60.0 hrs

With `CCCC[n+]1cccc(CCCOCCCCCCCCCCCCN=[N+]=[N-])c1.[I-]` the MIC (Candida albicans [1]) was 7.8 µg/mL, the MIC (Candida albicans [2]) was 7.8 µg/mL and the MIC (Nakaseomyces glabratus [3]) was 7.8 µg/mL. It also gave an MIC (Pichia kudriavzevii [4]) of 3.9 µg/mL, an MIC (Candida tropicalis [5]) of 7.8 µg/mL and an MIC (Candida albicans [6]) of 7.8 µg/mL. It also gave an MIC (Candida albicans [7]) of 7.8 µg/mL, an MIC (Candida albicans [8]) of 3.9 µg/mL and an MIC (Candida albicans [9]) of 1.95 µg/mL. For the same compound, the MIC (Candida albicans [10]) was 3.9 µg/mL, the MIC (Candida albicans [11]) was 15.6 µg/mL and the MIC (Candida albicans [12]) was 7.8 µg/mL. For the same compound, the MIC (Candida albicans [13]) was 3.9 µg/mL, the MIC (Candida albicans [14]) was 15.6 µg/mL and the MIC (Candida albicans [15]) was 15.6 µg/mL. For the same compound, the MIC (Candida albicans [16]) was 7.8 µg/mL, the MIC (Candida albicans [17]) was 7.8 µg/mL and the MIC (Candida albicans [18]) was 7.8 µg/mL. It also gave an MFC (Candida albicans [19]) of 125 µg/mL, an MFC (Candida albicans [20]) of 31.2 µg/mL and an MFC (Nakaseomyces glabratus [21]) of 15.6 µg/mL. The MFC (Pichia kudriavzevii [22]) was 3.9 µg/mL, the MFC (Candida tropicalis [23]) was 15.6 µg/mL and the MFC (Candida albicans [24]) was 62.5 µg/mL. For the same compound, the MFC (Candida albicans [25]) was 7.8 µg/mL, the MFC (Candida albicans [26]) was 3.9 µg/mL and the MFC (Candida albicans [27]) was 3.9 µg/mL. The MFC (Candida albicans [28]) was 3.9 µg/mL, the MFC (Candida albicans [29]) was 31.2 µg/mL and the MFC (Candida albicans [30]) was 7.8 µg/mL. It also gave an MFC (Candida albicans [31]) of 7.8 µg/mL, an MFC (Candida albicans [32]) of 31.2 µg/mL and an MFC (Candida albicans [33]) of 31.2 µg/mL. It also gave an MFC (Candida albicans [34]) of 7.8 µg/mL, an MFC (Candida albicans [35]) of 7.8 µg/mL and an MFC (Candida albicans [36]) of 7.8 µg/mL. For the same compound, the Activity (Candida albicans [37]) was “Active”, the Activity (Candida albicans [38]) was “Active” and the Activity (Nakaseomyces glabratus [39]) was “Active”. For the same compound, the Activity (Pichia kudriavzevii [40]) was “Active”, the Activity (Candida tropicalis [41]) was “Active” and the MIC (Candida albicans [42]) was 7.8 µg/mL. The MIC (Candida albicans [43]) was 7.8 µg/mL, the MIC (Nakaseomyces glabratus [44]) was 15.6 µg/mL and the MIC (Nakaseomyces glabratus [45]) was 7.8 µg/mL. For the same compound, the MIC (Pichia kudriavzevii [46]) was 3.9 µg/mL, the MIC (Pichia kudriavzevii [47]) was 3.9 µg/mL and the MIC (Candida tropicalis [48]) was 7.8 µg/mL. The MIC (Candida tropicalis [49]) was 7.8 µg/mL, the Activity (Candida albicans [50]) was “Active” and the inhibition at 125 µg/mL (Candida albicans [51]) was 50%. For the same compound, the Activity (Candida albicans [52]) was “Active” and the Activity (Candida albicans [53]) was “Active”.
